Results reported in ChEMBL document CHEMBL1201862, “PubChem BioAssay data set” (2004).
Active and inactive are the calls of the source.
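Throughout, for AC50: cells exposed to compound for roughly 70 hours or longer before luminescence read.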

Molecular target: Luciferin 4-monooxygenase (Photinus pyralis, UniProt P08659)
Sequence (P08659 whole entry): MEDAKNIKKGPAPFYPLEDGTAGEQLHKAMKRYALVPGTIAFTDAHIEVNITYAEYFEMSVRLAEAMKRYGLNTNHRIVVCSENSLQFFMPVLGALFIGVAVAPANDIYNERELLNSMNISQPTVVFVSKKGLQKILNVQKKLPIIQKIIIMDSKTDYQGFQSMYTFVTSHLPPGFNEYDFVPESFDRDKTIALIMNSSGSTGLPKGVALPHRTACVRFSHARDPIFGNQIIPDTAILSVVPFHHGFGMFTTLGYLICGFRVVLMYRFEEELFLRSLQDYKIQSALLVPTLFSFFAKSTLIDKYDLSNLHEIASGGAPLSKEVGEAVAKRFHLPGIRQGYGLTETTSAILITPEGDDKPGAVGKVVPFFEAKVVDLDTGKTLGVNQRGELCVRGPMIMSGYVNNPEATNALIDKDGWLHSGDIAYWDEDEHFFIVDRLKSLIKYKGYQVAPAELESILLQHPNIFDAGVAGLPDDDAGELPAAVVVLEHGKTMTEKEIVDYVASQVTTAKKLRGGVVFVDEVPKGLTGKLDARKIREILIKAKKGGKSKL
Assay: inhibition of purified Photinus pyralis luciferase – biochemical, luminescence, dose response (AID 1891)
Settings: not given
With COc1ccc(N(CC(=O)N/N=C/c2ccc(-c3ccc([N+](=O)[O-])cc3)o2)S(=O)(=O)c2ccc(C)cc2)cc1 the EC50 was > 112 µM (not active).
With Cc1ccc(C(=O)N/C(=C\c2cccc([N+](=O)[O-])c2)C(=O)NCc2ccncc2)cc1 the EC50 was > 112 µM (not active).
With CC(=O)NCc1cn2c(C)csc2n1 the EC50 was > 112 µM (not active).
For O=C1Nc2ccccc2C1=Nc1ccc(-c2nnc3n2CCCCC3)cc1, the EC50 was > 112 µM (not active).
In the case of O=C(Cc1c[nH]c2ccccc12)N/N=C/c1ccccc1O, the EC50 is reported as > 112 µM (not active).

Tested on: not listed separately
Assay: Luminescence Cell-Based Dose Confirmation HTS to Identify Inhibitors of Platelet Dense Granule Release. [Related pubchem assays: 1663 (Primary HTS), 1678 (Summary of Project)]
Assay type: functional
Settings: not given
For COc1ccc(N(CC(=O)N/N=C/c2ccc(-c3ccc([N+](=O)[O-])cc3)o2)S(=O)(=O)c2ccc(C)cc2)cc1, the EC50 was > 112 µM (not active).
For Cc1ccc(C(=O)N/C(=C\c2cccc([N+](=O)[O-])c2)C(=O)NCc2ccncc2)cc1, the EC50 was 38.4 µM (active).
With CC(=O)NCc1cn2c(C)csc2n1 the EC50 was > 112 µM (not active).
With O=C1Nc2ccccc2C1=Nc1ccc(-c2nnc3n2CCCCC3)cc1 the EC50 was > 112 µM (not active).
For O=C(Cc1c[nH]c2ccccc12)N/N=C/c1ccccc1O, the EC50 was > 112 µM (not active).

Molecular target: T1, Calpain-2 catalytic subunit (Sus scrofa, UniProt P43367)
T1 sequence (P43367 whole entry): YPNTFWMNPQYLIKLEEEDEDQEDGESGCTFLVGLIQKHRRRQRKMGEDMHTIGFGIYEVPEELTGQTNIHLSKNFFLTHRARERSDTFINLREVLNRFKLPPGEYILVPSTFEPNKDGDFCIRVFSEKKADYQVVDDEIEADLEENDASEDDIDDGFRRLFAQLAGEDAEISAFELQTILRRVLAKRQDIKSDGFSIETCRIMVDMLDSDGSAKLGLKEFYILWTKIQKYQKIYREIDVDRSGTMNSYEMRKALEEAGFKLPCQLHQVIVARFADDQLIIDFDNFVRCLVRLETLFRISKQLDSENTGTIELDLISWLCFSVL
Assay: m-calpain protease blockers, concentration series – biochemical, fluorogenic peptide substrate, dose response (AID 1420)
Assay type: functional
Settings: not given
With Cc1ccc(-c2nc(NCc3ccco3)c3ccccc3n2)cc1 the IC50 was 7.69 µM (not active).
With O=[N+]([O-])c1ccc(OC/C=C2\Oc3ccc([N+](=O)[O-])cc3C2N2CCOCC2)cc1 (stereo not given) the IC50 was 6.21 µM (not active).

Tested on: not listed separately
Assay: Luminescence Cell-Based Dose Retest to Confirm Inhibitors of Cancer Stem Cells. [Related pubchem assays (depositor defined):AID2717, AID2721]
Assay type: functional
Settings: Homo sapiens
For Cc1ccc(-c2nc(NCc3ccco3)c3ccccc3n2)cc1, the AC50 was 9.72 µM (active).

Molecular target: T2, Heat shock factor protein 1 (Mus musculus, UniProt P38532)
T2 sequence (P38532 whole entry): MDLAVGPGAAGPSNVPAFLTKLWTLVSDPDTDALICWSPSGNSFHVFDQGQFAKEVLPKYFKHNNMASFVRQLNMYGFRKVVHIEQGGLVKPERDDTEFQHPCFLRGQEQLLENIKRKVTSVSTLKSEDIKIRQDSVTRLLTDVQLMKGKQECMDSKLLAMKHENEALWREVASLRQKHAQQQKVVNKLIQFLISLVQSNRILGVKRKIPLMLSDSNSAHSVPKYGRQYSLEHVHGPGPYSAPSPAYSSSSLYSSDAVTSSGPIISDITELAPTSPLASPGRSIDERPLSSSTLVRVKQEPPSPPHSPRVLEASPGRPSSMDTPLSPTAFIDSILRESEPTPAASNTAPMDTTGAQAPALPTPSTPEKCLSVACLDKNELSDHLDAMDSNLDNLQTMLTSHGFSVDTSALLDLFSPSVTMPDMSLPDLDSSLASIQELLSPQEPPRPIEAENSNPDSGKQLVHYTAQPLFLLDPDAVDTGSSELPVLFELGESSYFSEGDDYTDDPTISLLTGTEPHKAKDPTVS
Assay: enhancement of HSF1-driven luciferase signal – cell-based, NIH3T3, luminescence, dose retest, confirmation (AID 435004);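 note: stress induced by proteasome inhibitor MG132 added 30 min after compound; luciferase reporter driven by HSF1 response element in NIH3T3 cells; actives raise luminescence as potentiators of the MG132 stress response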
Assay type: functional
Settings: not given
In the case of Cn1c(=O)oc2cc(S(=O)(=O)N3CCCCC3)ccc21, the EC50 is reported as > 260 µM (inactive).
With O=C(Nc1nc2ccccc2[nH]1)c1ccc(OC(F)F)cc1 the EC50 was > 260 µM (inconclusive).
In the case of CCOC(=O)c1sc(C)c2c1NC(C)(c1cccc3ccccc13)NC2=O (stereo not given), the EC50 is reported as > 260 µM (inactive).
In the case of CC(=O)NC(=O)NC1OC(=O)C(Cl)=C1Cl (stereo not given), the EC50 is reported as > 260 µM (inconclusive).
With O=C(CCCSc1nc2ccccc2[nH]1)N1CCN(c2ccc([N+](=O)[O-])cc2)CC1 the EC50 was > 260 µM (inactive).
With Cc1ccccc1NC(=O)CSc1nc(Nc2ccccc2)nc(N2CCOCC2)n1 the EC50 was > 260 µM (inactive).

Tested on: not listed separately
Assay: cells
Assay type: functional
Settings: not given
For Cc1ccsc1/C=N/NC(=O)c1ccncc1, the IC50 was 3.02 µM (active).
For O=C(N/N=C\C=C\c1ccco1)c1cncc(Br)c1, the IC50 was > 50 µM (active).
With CSc1nn(-c2ccc(C(=O)OCC(=O)NC(=O)NC(C)C)cc2)c(=S)s1 the IC50 was 13.2 µM (active).
In the case of Cc1cccc(NC(=O)CCSc2nnc(Cc3ccccc3)o2)c1, the IC50 is reported as 39.8 µM (active).
For O=C(OCc1nc2ccccc2s1)c1ccc(Br)o1, the IC50 was 11.9 µM (active).

Molecular target: T3, Protein skinhead-1 (Caenorhabditis elegans, UniProt P34707)
T3 sequence (P34707 whole entry): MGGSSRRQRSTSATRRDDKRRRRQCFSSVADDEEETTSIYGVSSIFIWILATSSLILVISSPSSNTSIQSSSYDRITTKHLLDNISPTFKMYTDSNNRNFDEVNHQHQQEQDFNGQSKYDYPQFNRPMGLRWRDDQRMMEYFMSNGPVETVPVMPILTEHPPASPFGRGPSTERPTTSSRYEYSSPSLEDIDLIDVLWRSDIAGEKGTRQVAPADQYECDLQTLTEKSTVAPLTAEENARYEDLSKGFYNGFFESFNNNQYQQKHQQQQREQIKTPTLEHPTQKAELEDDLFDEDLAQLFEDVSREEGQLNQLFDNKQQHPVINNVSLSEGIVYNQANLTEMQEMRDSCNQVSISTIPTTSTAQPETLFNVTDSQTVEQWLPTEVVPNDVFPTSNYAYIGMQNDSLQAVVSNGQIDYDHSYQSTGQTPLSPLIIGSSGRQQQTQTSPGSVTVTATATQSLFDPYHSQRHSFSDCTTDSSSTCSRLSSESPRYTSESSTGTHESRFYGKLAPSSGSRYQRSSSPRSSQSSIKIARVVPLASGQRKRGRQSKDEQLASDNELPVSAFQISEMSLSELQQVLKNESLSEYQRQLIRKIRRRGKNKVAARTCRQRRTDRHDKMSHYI
Assay: not given
Assay type: functional
Settings: not given
For O=[N+]([O-])c1ccc(OC/C=C2\Oc3ccc([N+](=O)[O-])cc3C2N2CCOCC2)cc1 (stereo not given), the IC50 was > 100 µM (inactive).
